“Also recorded” adds a separate entry of the source.
Columns and labels:
TMD8 cells [1] = test: RT-qPCR of IRF4, BCL6, MYC mRNA; format: cell-based, human; details: 24 h
Method: After culturing, total RNA was isolated from cells using the RNeasy Plus Mini Kit (Qiagen), then cDNA was prepared from total RNA using the SuperScript VILO cDNA Synthesis Kit (Invitrogen) following the kit instructions. For quantification of each mRNA expression level, PCR was performed using TaqMan Fast Universal PCR Master Mix (Thermo Fisher Scientific) under the following conditions with the AriaMx Real Time PCR System (Agilent Technologies): 95°C for 3 min, followed by 40 cycles at 95°C for 5 s and 60°C for 20 s with continuous fluorescence measurement. All PCRs were performed in triplicate, and the mRNA expression of GAPDH was used as an internal control. The results (fold changes of the threshold cycle [Ct] relative to the control group) were obtained using the 2^−ΔΔCt method. The TaqMan probes for IRF4 (Assay ID: Hs00180031_m1), BCL6 (Assay ID: Hs00153368_m1), MYC (Assay ID: Hs00153408_m1), and GAPDH (Assay ID: Hs02786624_g1) were purchased from Thermo Fisher Scientific. Statistical tests were performed with the SAS 9.4 (SAS Institute Japan Ltd., Tokyo, Japan) TS1M4-based EXSUS system version 10.1.3 (CAC Corporation, Tokyo, Japan). The t-test or Dunnett test was used to compare mRNA expression in the DMSO- and compound-treated groups. The statistical tests were two-sided with a 5% significance level.

TMD8 cells [2] = test: Western blot of IRF4, BCL6, c-MYC protein expression; format: cell-based, human; details: 24 h, 1 μM
Method: After culturing, cells were harvested and lysed with cell lysis buffer (Cell Signaling Technology, Inc.) containing 1 mM AEBSF (Calbiochem, #101500). As a positive control of BTK autophosphorylation for western blot analysis, TMD8 cells were treated with hydrogen peroxide (H2O2; final concentration: 6 mM) for 10 min, harvested as a control sample, and then lysed with the cell lysis buffer.
Each mixture of cells and cell lysis buffer was incubated on ice for 5 min, then centrifuged at 13400 × g and 4°C for 10 min. Total lysates were loaded on 4%–12% SDS-PAGE (Bio-Rad) and transferred to a polyvinylidene difluoride (PVDF) membrane (Immobilon-P Transfer Membrane, Millipore Corporation). The blot was incubated in Tris-buffered saline with Tween 20 (TBS-T, Cell Signaling Technology, Inc.) containing 2 w/v% ECL Advance Blocking Agent (GE Healthcare Life Sciences, b) for 1 h at room temperature. The blocked PVDF membranes were immersed in TBS-T and washed three times with shaking at room temperature for 10 min. The membrane was incubated with primary antibody in TBS-T containing 2 w/v% ECL Advance Blocking Agent with gentle agitation overnight at 5°C in a cold storage room or for 1 h at room temperature. […] Lumino-image analyzer (LAS-1000 Plus system, Fuji Photo Film Co., Ltd.) and Image Reader LAS-1000 Lite version 1.3 (Fuji Photo Film Co., Ltd.) were used to visualize bands. […]

EGFR(L861Q) = EGFR(L861Q) (Homo sapiens, UniProt P00533, L861Q); test: biochemical; design: KINOMEscan scanMAX competition binding, DNA-tagged kinases, qPCR read-out, percent control at 300 nM; details: read-out: Percent control / Tirabrutinib
Sequence of EGFR(L861Q) (P00533 whole entry L861Q): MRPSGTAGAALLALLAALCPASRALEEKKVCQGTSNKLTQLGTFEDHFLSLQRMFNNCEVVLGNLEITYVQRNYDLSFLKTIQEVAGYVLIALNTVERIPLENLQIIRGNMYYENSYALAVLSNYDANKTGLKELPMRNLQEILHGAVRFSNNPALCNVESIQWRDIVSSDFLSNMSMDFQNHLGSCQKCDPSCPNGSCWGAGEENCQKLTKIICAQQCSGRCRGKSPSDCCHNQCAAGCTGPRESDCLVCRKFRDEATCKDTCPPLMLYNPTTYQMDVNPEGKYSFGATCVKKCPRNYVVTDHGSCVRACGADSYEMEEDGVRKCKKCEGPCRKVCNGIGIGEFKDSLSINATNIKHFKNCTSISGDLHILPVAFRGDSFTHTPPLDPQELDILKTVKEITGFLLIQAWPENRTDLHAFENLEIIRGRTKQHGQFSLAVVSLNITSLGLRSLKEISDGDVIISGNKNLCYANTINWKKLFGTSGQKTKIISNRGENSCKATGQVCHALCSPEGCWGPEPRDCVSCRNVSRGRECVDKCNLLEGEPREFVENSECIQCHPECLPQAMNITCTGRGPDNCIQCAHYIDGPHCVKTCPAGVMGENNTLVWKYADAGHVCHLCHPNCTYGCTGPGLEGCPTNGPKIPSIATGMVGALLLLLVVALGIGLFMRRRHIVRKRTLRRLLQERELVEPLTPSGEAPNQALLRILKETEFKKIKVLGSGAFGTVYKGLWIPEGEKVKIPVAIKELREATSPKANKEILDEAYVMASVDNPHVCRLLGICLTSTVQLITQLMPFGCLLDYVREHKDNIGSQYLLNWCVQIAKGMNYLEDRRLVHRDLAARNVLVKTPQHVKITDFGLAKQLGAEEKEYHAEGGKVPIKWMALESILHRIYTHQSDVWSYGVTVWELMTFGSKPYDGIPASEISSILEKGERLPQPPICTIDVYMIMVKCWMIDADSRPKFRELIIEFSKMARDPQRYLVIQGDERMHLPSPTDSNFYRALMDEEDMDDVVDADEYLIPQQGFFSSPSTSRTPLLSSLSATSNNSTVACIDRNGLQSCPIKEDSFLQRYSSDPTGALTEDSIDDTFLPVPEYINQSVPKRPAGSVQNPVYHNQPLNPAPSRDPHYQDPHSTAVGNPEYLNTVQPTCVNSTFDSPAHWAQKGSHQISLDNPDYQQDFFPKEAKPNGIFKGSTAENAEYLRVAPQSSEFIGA

PFPK5(P.falciparum) = target: T1, PFPK5(P.falciparum) (Plasmodium falciparum, UniProt P61075); test: biochemical; details: read-out: Percent control / Zanubrutinib
T1 construct: gene MAL13P1.279
T1 sequence (P61075 whole entry): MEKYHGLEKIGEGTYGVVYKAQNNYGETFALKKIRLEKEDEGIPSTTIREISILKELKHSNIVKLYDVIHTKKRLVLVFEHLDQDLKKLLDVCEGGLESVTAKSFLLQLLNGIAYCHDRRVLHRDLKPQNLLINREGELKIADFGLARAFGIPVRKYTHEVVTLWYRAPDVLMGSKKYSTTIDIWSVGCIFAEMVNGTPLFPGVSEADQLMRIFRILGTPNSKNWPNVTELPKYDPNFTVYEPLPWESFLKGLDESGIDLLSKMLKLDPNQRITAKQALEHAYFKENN

HIPK2 = HIPK2 (Homo sapiens, UniProt Q9H2X6); test: biochemical; design: KINOMEscan scanMAX competition binding, DNA-tagged kinases, qPCR read-out, percent control at 300 nM; details: read-out: Percent control / Zanubrutinib
Sequence of HIPK2 (Q9H2X6 whole entry): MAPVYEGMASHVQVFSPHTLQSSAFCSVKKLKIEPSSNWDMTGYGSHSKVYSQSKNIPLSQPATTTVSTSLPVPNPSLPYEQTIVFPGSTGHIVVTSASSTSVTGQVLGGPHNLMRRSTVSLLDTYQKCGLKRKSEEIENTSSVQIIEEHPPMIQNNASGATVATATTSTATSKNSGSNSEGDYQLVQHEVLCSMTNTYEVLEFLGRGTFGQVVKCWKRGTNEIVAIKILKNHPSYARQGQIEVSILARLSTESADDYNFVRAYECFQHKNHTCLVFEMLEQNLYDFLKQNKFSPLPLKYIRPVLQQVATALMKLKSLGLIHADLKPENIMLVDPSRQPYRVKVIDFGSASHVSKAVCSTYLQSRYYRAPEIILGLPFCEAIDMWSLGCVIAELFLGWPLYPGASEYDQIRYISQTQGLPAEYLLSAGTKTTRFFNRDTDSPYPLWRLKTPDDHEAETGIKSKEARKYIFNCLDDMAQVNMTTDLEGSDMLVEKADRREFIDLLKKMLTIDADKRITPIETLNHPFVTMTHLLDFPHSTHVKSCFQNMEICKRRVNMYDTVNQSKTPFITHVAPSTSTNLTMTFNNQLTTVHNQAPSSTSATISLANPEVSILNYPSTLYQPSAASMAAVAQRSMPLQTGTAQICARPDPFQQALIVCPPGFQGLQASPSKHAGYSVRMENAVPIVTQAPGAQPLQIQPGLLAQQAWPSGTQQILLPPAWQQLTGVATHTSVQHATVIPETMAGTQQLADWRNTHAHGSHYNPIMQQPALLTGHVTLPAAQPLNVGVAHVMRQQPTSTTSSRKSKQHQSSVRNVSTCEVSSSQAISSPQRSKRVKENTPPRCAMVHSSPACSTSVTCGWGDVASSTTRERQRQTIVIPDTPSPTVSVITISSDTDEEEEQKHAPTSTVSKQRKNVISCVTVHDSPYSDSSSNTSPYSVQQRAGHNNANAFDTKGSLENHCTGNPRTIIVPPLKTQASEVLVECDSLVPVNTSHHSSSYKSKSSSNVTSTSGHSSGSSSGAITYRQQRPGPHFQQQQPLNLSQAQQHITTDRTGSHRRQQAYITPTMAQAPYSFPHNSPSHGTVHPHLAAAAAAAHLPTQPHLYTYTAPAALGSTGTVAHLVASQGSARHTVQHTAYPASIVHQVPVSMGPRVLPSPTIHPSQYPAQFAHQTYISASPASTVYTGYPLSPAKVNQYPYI

SIK2 = SIK2 (Homo sapiens, UniProt Q9H0K1); test: biochemical; design: KINOMEscan scanMAX competition binding, DNA-tagged kinases, qPCR read-out, percent control at 300 nM; details: read-out: Percent control / Acalabrutinib
Sequence of SIK2 (Q9H0K1 whole entry): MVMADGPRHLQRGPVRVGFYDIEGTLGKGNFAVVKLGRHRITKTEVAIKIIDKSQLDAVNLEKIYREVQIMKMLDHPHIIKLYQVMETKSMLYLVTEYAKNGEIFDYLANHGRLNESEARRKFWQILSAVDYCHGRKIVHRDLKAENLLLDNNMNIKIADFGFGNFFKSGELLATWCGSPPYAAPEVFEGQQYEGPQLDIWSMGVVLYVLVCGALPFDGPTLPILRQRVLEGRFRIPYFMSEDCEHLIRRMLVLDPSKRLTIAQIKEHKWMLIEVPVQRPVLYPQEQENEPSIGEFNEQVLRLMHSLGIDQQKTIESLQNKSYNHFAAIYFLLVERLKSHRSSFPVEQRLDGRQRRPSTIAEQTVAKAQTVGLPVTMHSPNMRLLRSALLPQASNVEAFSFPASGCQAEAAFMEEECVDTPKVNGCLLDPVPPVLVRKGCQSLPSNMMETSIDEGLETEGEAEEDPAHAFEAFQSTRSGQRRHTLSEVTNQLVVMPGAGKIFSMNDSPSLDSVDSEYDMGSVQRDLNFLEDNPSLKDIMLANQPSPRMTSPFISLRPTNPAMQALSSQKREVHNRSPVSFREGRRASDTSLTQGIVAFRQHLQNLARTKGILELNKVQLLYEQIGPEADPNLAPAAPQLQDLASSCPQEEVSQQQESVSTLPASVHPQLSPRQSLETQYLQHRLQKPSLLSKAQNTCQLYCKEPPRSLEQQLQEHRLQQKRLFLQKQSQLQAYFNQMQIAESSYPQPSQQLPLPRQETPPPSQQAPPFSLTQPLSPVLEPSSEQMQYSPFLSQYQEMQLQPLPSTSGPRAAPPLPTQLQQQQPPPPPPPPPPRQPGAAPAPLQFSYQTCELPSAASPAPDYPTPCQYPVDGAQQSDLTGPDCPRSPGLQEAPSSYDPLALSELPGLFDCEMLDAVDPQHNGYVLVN

PKNB(M.tuberculosis) = PKNB(M.tuberculosis) (Mycobacterium tuberculosis, UniProt P9WI81); test: biochemical; details: read-out: Percent control / Ibrutinib
Sequence of PKNB(M.tuberculosis) (P9WI81 whole entry, looked up): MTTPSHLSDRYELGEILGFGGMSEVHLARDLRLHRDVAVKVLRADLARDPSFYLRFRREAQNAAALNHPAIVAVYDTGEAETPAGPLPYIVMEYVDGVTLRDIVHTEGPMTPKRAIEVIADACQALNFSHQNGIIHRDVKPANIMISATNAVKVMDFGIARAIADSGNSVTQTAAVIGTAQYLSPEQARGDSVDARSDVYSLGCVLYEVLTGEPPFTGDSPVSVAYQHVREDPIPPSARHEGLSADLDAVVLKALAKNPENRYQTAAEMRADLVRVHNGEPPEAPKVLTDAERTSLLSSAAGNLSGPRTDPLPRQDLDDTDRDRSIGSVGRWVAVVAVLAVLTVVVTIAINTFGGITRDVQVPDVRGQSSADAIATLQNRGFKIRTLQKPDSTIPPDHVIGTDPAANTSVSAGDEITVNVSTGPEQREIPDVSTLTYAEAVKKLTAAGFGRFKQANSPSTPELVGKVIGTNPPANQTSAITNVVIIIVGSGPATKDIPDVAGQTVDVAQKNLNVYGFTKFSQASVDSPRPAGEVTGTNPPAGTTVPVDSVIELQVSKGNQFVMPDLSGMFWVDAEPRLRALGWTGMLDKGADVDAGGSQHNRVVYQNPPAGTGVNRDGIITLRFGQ

[3] = tirabrutinib 1 μM, BMS-345541 10 μM, MK-2206 1 μM, refametinib 0.1 μM

Which “BCL6 mRNA expression” value (TMD8 cells [1]; 1 μM) does the source give for `CC#CC(=O)N1CC[C@@H](n2c(=O)n(-c3ccc(Oc4ccccc4)cc3)c3c(N)ncnc32)C1` [Tirabrutinib] here?
The value was “upregulated”.

And the “IRF4 mRNA expression” value (TMD8 cells [1]; [3])?
The value was “downregulated; also recorded: strongly inhibited”.

And the “MYC mRNA expression” value (TMD8 cells [1]; [3])?
Its value is “partially downregulated”.

What about the BCL6 protein expression (TMD8 cells [2]) of the same compound?
Its BCL6 protein expression is “not changed”.

What about the IRF4 protein expression (TMD8 cells [2]) of the same compound?
The IRF4 protein expression was “downregulation”.

And the MYC protein expression (TMD8 cells [2])?
Its MYC protein expression is “downregulation”.

What about the remaining binding at 0.3 µM (EGFR(L861Q)) of the same compound?
Its remaining binding at 0.3 µM is 86%.

`C=CC(=O)N1CCC([C@@H]2CCNc3c(C(N)=O)c(-c4ccc(Oc5ccccc5)cc4)nn32)CC1` [Zanubrutinib] was tested. Which remaining activity at 0.3 µM (PFPK5(P.falciparum)) did it give?
The remaining activity at 0.3 µM was 100%.

And the remaining binding at 0.3 µM (HIPK2)?
The remaining binding at 0.3 µM was 87%.

With `CC#CC(=O)N1CCC[C@H]1c1nc(-c2ccc(C(=O)Nc3ccccn3)cc2)c2c(N)nccn12` [Acalabrutinib] as the compound, how does the remaining binding at 0.3 µM (SIK2) read?
Its remaining binding at 0.3 µM is 90%.

With `C=CC(=O)N1CCC[C@@H](n2nc(-c3ccc(Oc4ccccc4)cc3)c3c(N)ncnc32)C1` [Ibrutinib] as the compound, how does the remaining activity at 0.3 µM (PKNB(M.tuberculosis)) read?
Its remaining activity at 0.3 µM is 93%.
